Assay: Pharmacokinetic study, intravenous 5 mg/kg
Assay type: in vivo
Conditions: CD1 mice, 5 mg/kg, FIG. 8B
Description: Pharmacokinetic studies of the compound of Example 1 (i.e. CC-006) and previously disclosed compounds EPZ004777, CC001 (see U.S. 2014/0051654) and FED1 were performed in CD1 mice following intravenous administration, as detailed in Table 1.
Mean plasma concentration-time profiles representative of the compound of Example 1 (i.e. CC-006) after intravenous dosing (5 mg kg^−1) are shown in FIG. 8A (data represent the mean and s.d. (n=3)). […] From the pharmacokinetic properties, the compound of Example 1 (i.e. CC-006) has potential for use in treatment using intravenous administration due to its long half-life, as compared to subcutaneous administration.

SMILES: CC(C)N(C[C@H]1C[C@@H](n2ccc3c(N)ncnc32)[C@H](O)[C@@H]1O)[C@H]1C[C@@H](CCc2nc3cc(C(C)(C)C)ccc3[nH]2)C1 [CC001, reference compound]
- half-life (T1/2): longest half-life of the compounds tested

From US9458165B2, “DOT1L inhibitors” (Dana-Farber Cancer Institute, Inc., priority 2014, dated 2016)
